Data: ChEMBL document CHEMBL1151637, “A flavone with antiinflammatory activity from the roots of Rhus undulata” (1984)
Calls of active or inactive are those of the source. The calls are words filed in the database; no cut-off is given here.

What was measured:
Rattus norvegicus [1] = test: Antiinflammatory activity against rat assessed as inhibition of carrageenan-induced edema at 75 mg/kg; format: functional
Rattus norvegicus [2] = test: Antiinflammatory activity against rat assessed as inhibition of carrageenan-induced edema; format: functional

Compound	inhibition in vivo at 75 mg/kg (Rattus norvegicus [1])	ED25 (Rattus norvegicus [2])	Activity (Rattus norvegicus [2])
COc1ccc(-c2cc(=O)c3c(O)cc(OC)cc3o2)cc1 [APIGENIN DIMETHYLETHER]	25%	75 mg/kg	
C[C@@H]1O[C@@H](O[C@H]2[C@H](Oc3cc(O)c4c(c3)O[C@H](c3ccc(O)cc3)CC4=O)O[C@H](CO)[C@@H](O)[C@@H]2O)[C@H](O)[C@H](O)[C@H]1O			inactive
COc1ccc(-c2cc(=O)c3c(OC)c(OC)c(OC)c(OC)c3o2)cc1OC [NOBILETIN]		20 mg/kg	
CCCCC1C(=O)N(c2ccccc2)N(c2ccccc2)C1=O [PHENYLBUTAZONE]	81%		
C[C@]12CCC(=O)C=C1CC[C@@H]1[C@@H]2[C@@H](O)C[C@@]2(C)[C@H]1CC[C@]2(O)C(=O)COP(=O)(O)O [HYDROCORTISONE PHOSPHORIC ACID]		13.5 mg/kg	
